This is an account of results in US20230105212A1, “BIPHENYL DERIVATIVE INHIBITOR, PREPARATION METHOD THEREFOR AND USE THEREOF” (SHANGHAI HANSOH BIOMEDICAL CO., LTD., priority 2020, published 2023).

The target of one test is T1, human PD-1/PD-L1 binding (Homo sapiens, UniProt Q9NZQ7).
T1 construct: PD-L1-His protein (19 to 238 amino acids) (Abcam #ab167713); purchased Abcam (PD-L1-His); R&D (PD-1-Fc) ab167713; 1086-PD
The test can be described thus: Inhibition of human PD-1/PD-L1 binding (TR-FRET/HTRF). The settings on record: TR-FRET, PD-L1-His and PD-1-Fc; read-out: PD-1/PD-L1 binding IC50. The procedure, abridged: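 PD-L1-His (aa 19–238, diluted to 10 nM) and PD-1-Fc (aa 25–167, diluted to 20 nM) incubated with compounds (10 μM or 1 μM top, 3-fold, 11 doses) 60 min at room temperature, then anti-6HIS Eu cryptate/anti-human IgG-XL665 added for 3 h RT or overnight 4 °C. HTRF 665/620 nm ratio gave inhibition and IC50.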
In general terms: Time-resolved FRET reads energy transfer from a long-lived donor to a nearby acceptor.

The target in test [1] is T2, PD-L1 protein on the surface of MC38-hPDL1 tumor cells (Homo sapiens, UniProt Q9NZQ7).
T2 construct: expressed in transfected cells; host or cells: MC38-hPDL1 (mouse colon cancer cells)
T2 sequence (Q9NZQ7 19-290): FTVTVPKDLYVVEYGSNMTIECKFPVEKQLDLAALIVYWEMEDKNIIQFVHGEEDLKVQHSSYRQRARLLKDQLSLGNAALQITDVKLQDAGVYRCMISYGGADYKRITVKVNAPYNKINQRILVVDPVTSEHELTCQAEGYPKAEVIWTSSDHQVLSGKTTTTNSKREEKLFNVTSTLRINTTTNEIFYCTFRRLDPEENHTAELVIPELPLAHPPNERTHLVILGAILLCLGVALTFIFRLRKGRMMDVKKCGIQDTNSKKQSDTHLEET
The test can be described thus: Induction of endocytosis of PD-L1 on the surface of tumor cells (flow cytometry). It counts as cell-based. The settings on record: 16 hours incubation; for Emax: MC38-hPDL1 cells, read-out: MC38 maximum endocytosis rate; for IC50: inducing endocytosis of PD-L1, MC38-hPDL1 cells, read-out: MC38 IC50. The procedure, abridged:
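IC50 comes from nonlinear fits of endocytosis rate, calculated from the loss of surface PE-anti-CD274 flow signal relative to vehicle. Cells were MC38 mouse colon cancer cells engineered to express high human PD-L1. Compound exposure lasted 16 h at 37 °C, 5% CO2.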
In general terms: A flow cytometer gives signals particle by particle.

In another test the target is T3, human PD-L1 protein (Homo sapiens, UniProt Q9NZQ7).
T3 construct: purchased Acro Biosystems PD1-H5229
T3 sequence (Q9NZQ7 19-238 limits assumed): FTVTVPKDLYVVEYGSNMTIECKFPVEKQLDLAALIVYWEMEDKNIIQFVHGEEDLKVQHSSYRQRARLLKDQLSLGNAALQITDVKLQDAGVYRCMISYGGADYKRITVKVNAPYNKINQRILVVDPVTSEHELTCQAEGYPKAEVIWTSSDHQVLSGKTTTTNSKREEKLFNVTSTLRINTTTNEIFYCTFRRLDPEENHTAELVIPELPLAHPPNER
The test can be described thus: Thermal shift: melting temperature of PD-L1 protein. Format: binding. The settings on record: compound 10 μM, PD-L1 protein 2 μM, Tm minus DMSO vehicle control; read-out: ΔTm (° C.). The essentials:
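Human PD-L1 at 2 μM final was tested in […], 150 mM NaCl with SYPRO Orange, heated 25→95 °C at 0.03 °C/s in a PCR melt-curve run. Tm was taken per treatment; ΔTm is the shift relative to DMSO vehicle.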

T1 sequence (Q9NZQ7 19-238): as the sequence (Q9NZQ7 19-238 limits assumed) above

Take `COc1nc(-c2cccc(-c3cccc(NC(=O)c4nc5c(n4C)CCN(C)C5)c3Cl)c2Cl)ccc1CN1CC2(CC(O)C2)C1` [Embodiment 185, N-(2,2′-Dichloro-3′-(5-((6-hydroxy-2-azaspiro[3.3]heptan-2-yl)methyl)-6-methoxypyridin-2-yl)-[1,1′-biphenyl]-3-yl)-1,5-dimethyl-4,5,6,7-tetrahydro-1H-imidazo[4,5-c]pyridine-2-carboxamide]: at human PD-1/PD-L1 binding, the IC50 worked out at 5.3 nM. In addition, in test [1], the Emax came out at 97% and the IC50 is 0.7 nM. On human PD-L1 protein, the ΔTm at 10 µM was determined as 20.9 °C.
In the case of `COc1nc(-c2cccc(-c3cccc(NC(=O)c4nc5c(n4C)CCN(C)C5)c3Cl)c2Cl)ccc1CN1CC2(C1)CN(C(=O)C(F)F)C2` [Embodiment 190, N-(2,2′-Dichloro-3′-(5-((6-(2,2-difluoroacetyl)-2,6-diazaspiro[3.3]heptan-2-yl)methyl)-6-methoxypyridin-2-yl)-[1,1′-biphenyl]-3-yl)-1,5-dimethyl-4,5,6,7-tetrahydro-1H-imidazo[4,5-c]pyridine-2-carboxamide], the IC50 at human PD-1/PD-L1 binding was found to be 8.5 nM; in test [1] it was 0.8 nM. Also, in test [1], the Emax came to 97%. Besides, the ΔTm at 10 µM on human PD-L1 protein stood at 14 °C.
In the case of `COc1nc(-c2cccc(-c3cccc(NC(=O)c4nc5c(n4C)CCN(C)C5)c3Cl)c2Cl)ccc1CN1CC2(C1)CN(C(=O)CC#N)C2` [Embodiment 191, N-(2,2′-Dichloro-3′-(5-((6-(2-cyanoacetyl)-2,6-diazaspiro[3.3]heptan-2-yl)methyl)-6-methoxypyridin-2-yl)-[1,1′-biphenyl]-3-yl)-1,5-dimethyl-4,5,6,7-tetrahydro-1H-imidazo[4,5-c]pyridine-2-carboxamide], the IC50 at human PD-1/PD-L1 binding was found to be 4.8 nM. Also, the Emax in test [1] is 97%. On human PD-L1 protein, the ΔTm at 10 µM was found to be 11.7 °C.
For `COc1nc(-c2cccc(-c3cccc(NC(=O)c4nc5c(n4C)CCN(C)C5)c3Cl)c2Cl)ccc1CN1CC2(CCN(C(C)=O)CC2)C1` [Embodiment 194, N-(3′-(5-((7-Acetyl-2,7-diazaspiro[3.5]nonan-2-yl)methyl)-6-methoxypyridin-2-yl)-2,2′-dichloro-[1,1′-biphenyl]-3-yl)-1,5-dimethyl-4,5,6,7-tetrahydro-1H-imidazo[4,5-c]pyridine-2-carboxamide] the same measures were 7.9 nM, 96% and 13.2 °C.
Take `COc1nc(-c2cccc(-c3cccc(NC(=O)c4nc5c(n4C)CCN(C)C5)c3Cl)c2Cl)ccc1CN1CCN(C(=O)CC#N)CC1` [Embodiment 198, N-(2,2′-Dichloro-3′-(5-((4-(2-cyanoacetyl)piperazin-1-yl)methyl)-6-methoxypyridin-2-yl)-[1,1′-biphenyl]-3-yl)-1,5-dimethyl-4,5,6,7-tetrahydro-1H-imidazo[4,5-c]pyridine-2-carboxamide]: the IC50 at human PD-1/PD-L1 binding stood at 9.6 nM. Also, the Emax in test [1] is 94%. For the same molecule, the ΔTm at 10 µM at human PD-L1 protein came to 12 °C.
As to `COc1nc(-c2cccc(-c3cccc(NC(=O)c4nc5c(n4C)CCN(C)C5)c3Cl)c2Cl)ccc1CN1C[C@@H]2C[C@H]1CN2C(C)=O` [Embodiment 205, N-(3′-(5-(((1S,4S)-5-Acetyl-2,5-diazabicyclo[2.2.1]heptan-2-yl)methyl)-6-methoxypyridin-2-yl)-2,2′-dichloro-[1,1′-biphenyl]-3-yl)-1,5-dimethyl-4,5,6,7-tetrahydro-1H-imidazo[4,5-c]pyridine-2-carboxamide], the IC50 at human PD-1/PD-L1 binding is 8.8 nM. Further, the Emax in test [1] was 96%. In addition, the ΔTm at 10 µM on human PD-L1 protein was found to be 13.3 °C.
`COc1nc(-c2cccc(-c3cccc(NC(=O)c4nc5c(n4C)CCN(C)C5)c3Cl)c2Cl)ccc1CN1C2CC1CN(C(C)=O)C2` [Embodiment 209, N-(3′-(5-((3-Acetyl-3,6-diazabicyclo[3.1.1]heptan-6-yl)methyl)-6-methoxypyridin-2-yl)-2,2′-dichloro-[1,1′-biphenyl]-3-yl)-1,5-dimethyl-4,5,6,7-tetrahydro-1H-imidazo[4,5-c]pyridine-2-carboxamide]: on human PD-1/PD-L1 binding, the IC50 came out at 7.1 nM. In test [1], the Emax was 90%. The ΔTm at 10 µM on human PD-L1 protein was 10.7 °C.
The corresponding values for `COc1nc(-c2cccc(-c3cccc(NC(=O)c4nc5c(n4C)CCN(C)C5)c3Cl)c2Cl)ccc1CNC1CCOCC1C(=O)O` (centres unmarked) [Embodiment 214, 4-(((6-(2,2′-Dichloro-3′-(1,5-dimethyl-4,5,6,7-tetrahydro-1H-imidazo[4,5-c]pyridin-2-carboxamido)-[1,1′-biphenyl]-3-yl)-2-methoxypyridin-3-yl)methyl)amino)tetrahydro-2H-pyran-3-carboxylic Acid] are 5.3 nM, 93% and 10.2 °C.
The corresponding values for `COc1nc(-c2cccc(-c3cccc(NC(=O)c4nc5c(n4C)CCN(C)C5)c3Cl)c2Cl)ncc1CNCCO` [Embodiment 229, N-(2,2′-Dichloro-3′-(5-(((2-hydroxyethyl)amino)methyl)-4-methoxypyrimidin-2-yl)-[1,1′-biphenyl]-3-yl)-1,5-dimethyl-4,5,6,7-tetrahydro-1H-imidazo[4,5-c]pyridine-2-carboxamide] are 3.2 nM, 95% and 12 °C.
For the molecule `COc1nc(-c2cccc(-c3cccc(NC(=O)c4nc5c(n4C)CCN(C)C5)c3Cl)c2Cl)ccc1CN1CCCC[C@H]1C(=O)O` [Embodiment 230, (S)-1-((6-(2,2′-Dichloro-3′-(1,5-dimethyl-4,5,6,7-tetrahydro-1H-imidazo[4,5-c]pyridine-2-carboxamido)-[1,1′-biphenyl]-3-yl)-2-methoxypyridin-3-yl)methyl)piperidine-2-carboxylic Acid], the IC50 on human PD-1/PD-L1 binding turned out to be 1.8 nM. Moreover, in test [1], the Emax turned out to be 95%. For the same molecule, the ΔTm at 10 µM on human PD-L1 protein came to 11.3 °C.
In the case of `COc1nc(-c2cccc(-c3cccc(NC(=O)c4nc5c(n4C)CCN(C)C5)c3Cl)c2Cl)ccc1CN[C@@H](CO)C(=O)O` [Embodiment 232, ((6-(2,2′-Dichloro-3′-(1,5-dimethyl-4,5,6,7-tetrahydro-1H-imidazo[4,5-c]pyridine-2-carboxamido)-[1,1′-biphenyl]-3-yl)-2-methoxypyridin-3-yl)methyl)-L-serine], the IC50 at human PD-1/PD-L1 binding amounted to 1.7 nM. Also, the Emax in test [1] is 94%. Further, at human PD-L1 protein, the ΔTm at 10 µM was found to be 11.1 °C.
The corresponding values for `CCn1c(C(=O)Nc2cccc(-c3cccc(-c4ccc(CN5CC6(COC6)C5)c(OC)n4)c3Cl)c2Cl)nc2c1CCN(C)C2` [Embodiment 237, N-(3′-(5-((2-Oxa-6-azaspiro[3.3]heptan-6-yl)methyl)-6-methoxypyridin-2-yl)-2,2′-dichloro-[1,1′-biphenyl]-3-yl)-1-ethyl-5-methyl-4,5,6,7-tetrahydro-1H-imidazo[4,5-c]pyridine-2-carboxamide] are 5.2 nM, 94% and 11.6 °C.
The corresponding values for `CCn1c(C(=O)Nc2cccc(-c3cccc(-c4ccc(CN5CC6(C5)CN(C(C)=O)C6)c(OC)n4)c3Cl)c2Cl)nc2c1CCN(C)C2` [Embodiment 238, N-(3′-(5-((6-Acetyl-2,6-diazaspiro[3.3]heptan-2-yl)methyl)-6-methoxypyridin-2-yl)-2,2′-dichloro-[1,1′-biphenyl]-3-yl)-1-ethyl-5-methyl-4,5,6,7-tetrahydro-1H-imidazo[4,5-c]pyridine-2-carboxamide] are 4.1 nM, 95% and 10.8 °C.
Take `CCn1c(C(=O)Nc2cccc(-c3cccc(-c4ccc(CN5CC(CO)C5)c(OC)n4)c3Cl)c2Cl)nc2c1CCN(C)C2` [Embodiment 239, N-(2,2′-Dichloro-3′-(5-((3-(hydroxymethyl)azetidin-1-yl)methyl)-6-methoxypyridin-2-yl)-[1,1′-biphenyl]-3-yl)-1-ethyl-5-methyl-4,5,6,7-tetrahydro-1H-imidazo[4,5-c]pyridine-2-carboxamide]: the IC50 at human PD-1/PD-L1 binding came to 4.9 nM. For the same molecule, in test [1], the Emax came out at 95%. Besides, the shift in melting temperature (ΔTm) at 10 µM on human PD-L1 protein amounted to 11.9 °C.
The corresponding values for `CCn1c(C(=O)Nc2cccc(-c3cccc(-c4ccc(CN5CC(C(=O)O)C5)c(OC)n4)c3Cl)c2Cl)nc2c1CCN(C)C2` [Embodiment 240, 1-((6-(2,2′-Dichloro-3′-(1-ethyl-5-methyl-4,5,6,7-tetrahydro-1H-imidazo[4,5-c]pyridine-2-carboxamido)-[1,1′-biphenyl]-3-yl)-2-methoxypyridin-3-yl)methyl)azetidine-3-carboxylic Acid] are 2.8 nM, 97% and 13 °C.
Consider `COc1nc(-c2cccc(-c3cccc(NC(=O)c4nc5c(n4C4CC4)CCN(C)C5)c3Cl)c2Cl)ccc1CN1CC(CO)C1` [Embodiment 245, 1-Cyclopropyl-N-(2,2′-dichloro-3′-(5-((3-(hydroxymethyl)azetidin-1-yl)methyl)-6-methoxypyridin-2-yl)-[1,1′-biphenyl]-3-yl)-5-methyl-4,5,6,7-tetrahydro-1H-imidazo[4,5-c]pyridine-2-carboxamide], for which the IC50 at human PD-1/PD-L1 binding was 4.4 nM. The Emax in test [1] came out at 93%. Moreover, the ΔTm at 10 µM on human PD-L1 protein is 10.2 °C.

The ΔTm is the shift of the melting midpoint relative to a reference.
